In patent US9006246B2, “Tetrahydrocarboline derivative” (Ono Pharmaceutical Co., Ltd., priority 2010, dated 2015) one finds inhibition and IC50 data, which are given here for 26 compounds.

One may read the inhibition as how much of the control response was suppressed. A word on the IC50: it is the concentration that gives 50% inhibition.

Each structure is given as a SMILES string. Structures can show the parent of a compound that is named as a salt.

The first assay has as its target human ENPP2 (Homo sapiens (Human), UniProt Q13822). As to the kind of experiment: Measurement of human ENPP2 inhibitory activity. The format is biochemical. The following applies: 1 μM test compound; 16:0-LPC substrate, 37° C., 24 hours; read-out: ENPP2 inhibition rate(%) (1 μM). As to the method:
10 μL of a test compound solution (10% dimethyl sulfoxide) at each concentration and 40 μL of a 5 μg/mL human ENPP2 solution (buffer A: 100 mmol/L Tris-HCl (pH 9.0), 500 mmol/L NaCl, 5 mmol/L MgCl2, 0.05% Triton X-100) were mixed, 50 μL of a 2 mmol/L 16:0-lysophosphatidylcholine (LPC) solution (buffer A) was further added to react at 37° C. for 24 hours. Subsequently, to 10 μL of the reaction solution was added 90 μL of a measurement buffer (0.5 mmol/L aminoantipyrine, 0.3 mmol/L N-ethyl-N-(2-hydroxy-3-sulfopropyl)-3-methylaniline, 1 U/mL peroxidase, 3 U/mL choline oxidase, 100 mmol/L Tris-HCl (pH 8.5), 5 mmol/L CaCl2) to react at 37° C. for 20 minutes, and spectrophotometric determination was performed at 555 nm.
Using a standard curve, a choline production amount (enzyme activity) in each test compound was calculated, and the inhibitory activity rate of each test compound was calculated, wherein the enzyme activity in a positive control to which a test compound is not added, was a 0% inhibition rate, and the enzyme activity in a negative control to which a test compound and human ENPP2 are not added, were 100% inhibition. Further, concerning the present compounds shown in Table 3, an IC50 value was calculated from inhibitory activity rate at each concentration.
As for `O=C(O)CCCC(=O)N1CCc2c(n(CCCc3ccccc3)c3ncccc23)C1` [Example 9(26), 5-oxo-5-[9-(3-phenylpropyl)-5,6,8,9-tetrahydro-7H-pyrido[4′,3′:4,5]pyrrolo[2,3-b]pyridin-7-yl]pentanoic acid], the inhibition at 1 µM amounted to 59.3%. Still for that read-out and setting: with `O=C(CC12CCC(C(=O)O)(CC1)C2)N1CCc2c(n(Cc3ccc(F)cc3)c3ncccc23)C1` [Example 31(188), 4-{2-[9-(4-fluorobenzyl)-5,6,8,9-tetrahydro-7H-pyrido[4′,3′:4,5]pyrrolo[2,3-b]pyridin-7-yl]-2-oxoethyl}bicyclo[2.2.1]heptane-1-carboxylic acid] the figure was 98.8%; with `O=C(CC12CCC(C(=O)O)(CC1)CC2)N1CCc2c(n(Cc3cc(F)cc(F)c3)c3ncccc23)C1` [Example 31(128), 4-{2-[9-(3,5-difluorobenzyl)-5,6,8,9-tetrahydro-7H-pyrido[4′,3′:4,5]pyrrolo[2,3-b]pyridin-7-yl]-2-oxoethyl}bicyclo[2.2.2]octane-1-carboxylic acid], 99%. Take `O=C(CC12CCC(C(=O)O)(CC1)CC2)N1CCc2c(n(Cc3ccc(F)c(F)c3)c3ncccc23)C1` [Example 31(170), 4-{2-[9-(3,4-difluorobenzyl)-5,6,8,9-tetrahydro-7H-pyrido[4′,3′:4,5]pyrrolo[2,3-b]pyridin-7-yl]-2-oxoethyl}bicyclo[2.2.2]octane-1-carboxylic acid]: the inhibition at 1 µM amounted to 98%. Same read-out and setting: the figure for `COC(=O)CCCCC(=O)N1CCc2c(n(CCCc3ccccc3)c3ccccc23)C1` [Example 2, methyl 6-oxo-6-[9-(3-phenylpropyl)-1,3,4,9-tetrahydro-2H-beta-carbolin-2-yl]hexanoate] is 67.7%. Take `COc1cc(CC(=O)N2CCc3c(n(Cc4cc(F)cc(F)c4)c4ncccc34)C2)ccc1C(=O)O` [Example 51(23), 4-{2-[9-(3,5-difluorobenzyl)-5,6,8,9-tetrahydro-7H-pyrido[4′,3′:4,5]pyrrolo[2,3-b]pyridin-7-yl]-2-oxoethyl}-2-methoxybenzoic acid]: the inhibition at 1 µM is 96.2%. Still for that read-out and setting: with `CC1(C)[C@@H](CC(=O)N2CCc3c(n(Cc4ccc(Cl)cc4F)c4ncccc34)C2)CC[C@@]1(C)C(=O)O` [Example 31(160), (1R,3R)-3-{2-[9-(4-chloro-2-fluorobenzyl)-5,6,8,9-tetrahydro-7H-pyrido[4′,3′:4,5]pyrrolo[2,3-b]pyridin-7-yl]-2-oxoethyl}-1,2,2-trimethylcyclopentanecarboxylic acid] the figure was 99.5%. The same measure, in the same setting: the figure for `O=C(CC12CCC(C(=O)O)(CC1)C2)N1CCc2c(n(Cc3ccc(F)cc3F)c3ncccc23)C1` [Example 31(182), 4-{2-[9-(2,4-difluorobenzyl)-5,6,8,9-tetrahydro-7H-pyrido[4′,3′:4,5]pyrrolo[2,3-b]pyridin-7-yl]-2-oxoethyl}bicyclo[2.2.1]heptane-1-carboxylic acid] is 98.9%; for `O=C(CC12CCC(C(=O)O)(CC1)CC2)N1CCc2c(n(Cc3cc(F)c(F)cc3F)c3ncccc23)C1` [Example 31(129), 4-{2-oxo-2-[9-(2,4,5-trifluorobenzyl)-5,6,8,9-tetrahydro-7H-pyrido[4′,3′:4,5]pyrrolo[2,3-b]pyridin-7-yl]ethyl}bicyclo[2.2.2]octane-1-carboxylic acid] it is 99.8%. As for `O=C(O)CCCCCC(=O)N1CCc2c(n(CCCc3ccc(F)cc3)c3ccccc23)C1` [Example 3(19), 7-{9-[3-(4-fluorophenyl)propyl]-1,3,4,9-tetrahydro-2H-beta-carbolin-2-yl}-7-oxoheptanoic acid], the inhibition at 1 µM is 95.1%. Regarding `CC1CN(C(=O)CCCC(C)(C)C(=O)O)Cc2c1c1cccnc1n2Cc1cccc(F)c1` (centres unmarked) [Example 23, 6-[9-(3-fluorobenzyl)-5-methyl-5,6,8,9-tetrahydro-7H-pyrido[4′,3′:4,5]pyrrolo[2,3-b]pyridin-7-yl]-2,2-dimethyl-6-oxohexanoic acid], the inhibition at 1 µM came out at 96.2%. As for `O=C(O)CCCCC(=O)N1CCc2c(n(Cc3cccs3)c3ncccc23)C1` [Example 9(59), 6-oxo-6-[9-(2-thienylmethyl)-5,6,8,9-tetrahydro-7H-pyrido[4′,3′:4,5]pyrrolo[2,3-b]pyridin-7-yl]hexanoic acid], the inhibition at 1 µM was 69.3%. Take `O=C(O)CCCCC(=O)N1CCc2c(n(CCSc3ccccc3)c3ncccc23)C1` [Example 9(31), 6-oxo-6-{9-[2-(phenylthio)ethyl]-5,6,8,9-tetrahydro-7H-pyrido[4′,3′:4,5]pyrrolo[2,3-b]pyridin-7-yl}hexanoic acid]: the inhibition at 1 µM worked out at 82.4%. With `O=C(O)CCCCC(=O)N1CCc2c(n(CCOc3ccccc3)c3ncccc23)C1` [Example 9(28), 6-oxo-6-[9-(2-phenoxyethyl)-5,6,8,9-tetrahydro-7H-pyrido[4′,3′:4,5]pyrrolo[2,3-b]pyridin-7-yl]hexanoic acid], the inhibition at 1 µM was 76.6%.

Consider `CC(C)(OCC(=O)N1CCc2c(n(Cc3cccc(F)c3)c3ncccc23)C1)C(=O)O` [Example 18(1), 2-{2-[9-(3-fluorobenzyl)-5,6,8,9-tetrahydro-7H-pyrido[4′,3′:4,5]pyrrolo[2,3-b]pyridin-7-yl]-2-oxoethoxy}-2-methylpropanoic acid], for which the inhibition at 1 µM stood at 89.6%.

For the compound `CC(C)(CCCC(=O)N1CCc2c(n(Cc3ccccc3)c3ccccc23)C1)C(=O)O` [Example 12(27), 6-(9-benzyl-1,3,4,9-tetrahydro-2H-beta-carbolin-2-yl)-2,2-dimethyl-6-oxohexanoic acid], the inhibition at 1 µM was found to be 91.9%.

The same assay, now with this note: 16:0-LPC substrate, 37° C., 24 hours.
`Cc1cc(CC(=O)N2CCc3c(n(Cc4csc(Cl)c4)c4ncccc34)C2)ccc1C(=O)O` [Example 51(48), 4-(2-{9-[(5-chloro-3-thienyl)methyl]-5,6,8,9-tetrahydro-7H-pyrido[4′,3′:4,5]pyrrolo[2,3-b]pyridin-7-yl}-2-oxoethyl)-2-methylbenzoic acid] came in with an IC50 of 7.8 nM. Compound `O=C(CC12CCC(C(=O)O)(CC1)CC2)N1CCc2c(n(Cc3ccc(Cl)cc3)c3ncccc23)C1` [Example 31(140), 4-{2-[9-(4-chlorobenzyl)-5,6,8,9-tetrahydro-7H-pyrido[4′,3′:4,5]pyrrolo[2,3-b]pyridin-7-yl]-2-oxoethyl}bicyclo[2.2.2]octane-1-carboxylic acid] yielded an IC50 of 11 nM. For `O=C(CC12CCC(C(=O)O)(CC1)CC2)N1CCc2c(n(Cc3cccc(F)c3)c3ncccc23)C1` [Example 31(127), 4-{2-[9-(3-fluorobenzyl)-5,6,8,9-tetrahydro-7H-pyrido[4′,3′:4,5]pyrrolo[2,3-b]pyridin-7-yl]-2-oxoethyl}bicyclo[2.2.2]octane-1-carboxylic acid], the IC50 is 11 nM. That is a double-digit nanomolar value. `O=C(O)CCCCC(=O)N1CCc2c(n(Cc3cccc(F)c3)c3ncccc23)C1` [Example 9, 6-[9-(3-fluorobenzyl)-5,6,8,9-tetrahydro-7H-pyrido[4′,3′:4,5]pyrrolo[2,3-b]pyridin-7-yl]-6-oxohexanoic acid]: the midpoint of inhibition, the IC50, lay at 91 nM.

As to `O=C(O)CCCCC(=O)N1CCc2c(n(CCC3CCCCC3)c3ncccc23)C1` [Example 9(2), 6-[9-(2-cyclohexylethyl)-5,6,8,9-tetrahydro-7H-pyrido[4′,3′:4,5]pyrrolo[2,3-b]pyridin-7-yl]-6-oxohexanoic acid], the IC50 worked out at 16 nM. This IC50 lies about 5.7-fold lower than the previous one. Turning to `C[C@@H]1CN(CC(=O)N2CCc3c(n(Cc4ccc(Cl)s4)c4ccccc34)C2)C[C@H](C)N1CC(=O)O` [Example 35(122), rel-[(2R,6S)-4-(2-{9-[(5-chloro-2-thienyl)methyl]-1,3,4,9-tetrahydro-2H-beta-carbolin-2-yl}-2-oxoethyl)-2,6-dimethyl-1-piperazinyl]acetic acid dihydrochloride], the midpoint of inhibition, the IC50, lay at 35 nM. The compound `C[C@]1(C(=O)O)CC[C@H](CC(=O)N2CCc3c(n(Cc4ccc(Cl)cc4)c4ncccc34)C2)CC1` [Example 48(9), trans-4-{2-[9-(4-chlorobenzyl)-5,6,8,9-tetrahydro-7H-pyrido[4′,3′:4,5]pyrrolo[2,3-b]pyridin-7-yl]-2-oxoethyl}-1-methylcyclohexanecarboxylic acid] returned an IC50 of 25 nM. For `CC(C)(CNCC(=O)N1CCc2c(n(Cc3cccc(F)c3)c3ncccc23)C1)C(=O)O` [Example 20, 3-({2-[9-(3-fluorobenzyl)-5,6,8,9-tetrahydro-7H-pyrido[4′,3′:4,5]pyrrolo[2,3-b]pyridin-7-yl]-2-oxoethyl}amino)-2,2-dimethylpropanoic acid hydrochloride], the half-maximal inhibitory concentration (IC50) came out at 83 nM.

Consider `C[C@]1(C(=O)O)CC[C@H](CC(=O)N2CCc3c(n(Cc4ccc(F)cc4)c4ncccc34)C2)CC1` [Example 48(8), trans-4-{2-[9-(4-fluorobenzyl)-5,6,8,9-tetrahydro-7H-pyrido[4′,3′:4,5]pyrrolo[2,3-b]pyridin-7-yl]-2-oxoethyl}-1-methylcyclohexanecarboxylic acid], for which the IC50 was found to be 26 nM.

Regarding `O=C(O)C1CCCN(CC(=O)N2CCc3c(n(Cc4cccc(F)c4)c4ncccc34)C2)C1` (centres unmarked) [Example 35(2), 1-{2-[9-(3-fluorobenzyl)-5,6,8,9-tetrahydro-7H-pyrido[4′,3′:4,5]pyrrolo[2,3-b]pyridin-7-yl]-2-oxoethyl}-3-piperidinecarboxylic acid], inhibition was half-maximal at 110 nM (IC50).
